Data from BindingDB's records for doi:10.3109/14756360903389872 (Medical University, 2010).
pIC50: −log10 of the molar value.

Tests used:
Test in all cases: Antiamidolytic Assay
Plasminogen = Plasminogen (Homo sapiens, UniProt P00747)
Description: (§1) Quantities of 0.2 mL of examined preparation (as control, 0.15 M NaCl), buffer, and 0.1 mL of enzyme solution were mixed together. The mixture was incubated at 37°C for 3 min then the synthetic substrate solution in the same buffer was added. After 20 min of incubation, the reaction was stopped by adding 0.1 mL of 50% acetic acid, and the absorbance of the released p-nitroaniline was measured at 405 nm.

[1] = biological target: Urokinase-type plasminogen activator (Homo sapiens, UniProt P00749)
Description: as §1

Serine protease 1 = Serine protease 1 (Homo sapiens, UniProt P07477)
Description: as §1

Sequence of Plasminogen (P00747 97-580 limits assumed): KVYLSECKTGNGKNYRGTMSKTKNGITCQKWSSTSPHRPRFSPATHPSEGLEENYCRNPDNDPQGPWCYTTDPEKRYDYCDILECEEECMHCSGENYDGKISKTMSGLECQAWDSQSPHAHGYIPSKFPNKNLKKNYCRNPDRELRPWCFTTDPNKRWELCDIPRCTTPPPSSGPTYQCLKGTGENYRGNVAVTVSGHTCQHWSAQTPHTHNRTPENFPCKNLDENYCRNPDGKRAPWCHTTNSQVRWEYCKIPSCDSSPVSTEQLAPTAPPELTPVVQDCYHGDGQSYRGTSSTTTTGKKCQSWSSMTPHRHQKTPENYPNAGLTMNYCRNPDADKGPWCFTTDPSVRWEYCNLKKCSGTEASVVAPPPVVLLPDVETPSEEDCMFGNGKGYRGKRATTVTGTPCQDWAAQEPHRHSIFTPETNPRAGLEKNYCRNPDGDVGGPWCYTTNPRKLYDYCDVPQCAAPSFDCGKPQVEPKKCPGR
Sequence of Plasminogen (P00747 581-810 limits assumed): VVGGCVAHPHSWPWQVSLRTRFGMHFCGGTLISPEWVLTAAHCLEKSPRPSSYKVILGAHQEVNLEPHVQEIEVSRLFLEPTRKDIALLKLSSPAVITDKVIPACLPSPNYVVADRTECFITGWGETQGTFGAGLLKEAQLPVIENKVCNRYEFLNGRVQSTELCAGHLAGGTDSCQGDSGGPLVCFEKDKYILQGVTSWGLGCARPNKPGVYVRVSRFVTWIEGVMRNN
Sequence of Serine protease 1 (P07477 whole entry): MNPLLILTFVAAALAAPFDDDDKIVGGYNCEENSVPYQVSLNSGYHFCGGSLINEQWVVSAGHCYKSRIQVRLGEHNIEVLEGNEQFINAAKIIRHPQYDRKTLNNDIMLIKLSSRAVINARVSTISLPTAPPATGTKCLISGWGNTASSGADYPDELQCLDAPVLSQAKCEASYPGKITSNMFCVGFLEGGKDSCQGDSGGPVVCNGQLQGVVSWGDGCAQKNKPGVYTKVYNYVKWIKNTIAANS

Structure (SMILES)	pIC50 (Plasminogen)	pIC50 [1]	pIC50 (Serine protease 1)
Cn1cc(NC(=O)c2cc(NC(=O)CN=C(N)N)cn2C)cc1C(=O)NCCC(=N)N	4.40	4.52	–
N=C(N)c1ccc(OCCCCCOc2ccc(C(=N)N)cc2)cc1 [4-[5-(4-carbamimidoylphenoxy)pentoxy]benzenecarboximidamide;2-oxidanylethanesulfonic acid]	> 5.00	4.70	4.00
Nc1cccc(C(=O)Nc2cccc(C(=O)NCCCNC(=O)c3cccc(NC(=O)c4cccc(N)c4)c3)c2)c1 [Carbocyclic minor groove binder, 4]	4.70	–	–
Nc1cccc(C(=O)Nc2cccc(C(=O)NCCCCNC(=O)c3cccc(NC(=O)c4cccc(N)c4)c3)c2)c1 [Carbocyclic minor groove binder, 5]	4.70	5.00	–
Nc1cccc(C(=O)Nc2cccc(C(=O)NCCCCCNC(=O)c3cccc(NC(=O)c4cccc(N)c4)c3)c2)c1 [Carbocyclic minor groove binder, 6]	5.00	4.85	4.70
